According to US20130252988A1, “COMPOSITIONS AND METHODS FOR TREATING MYELOFIBROSIS” (TARGEGEN, INC., priority 2010, published 2013):
Structures can show the parent of a compound that is named as a salt. Where two headings read alike, the source gives them in different places.

Test system: subjects with myelofibrosis
Details: for Discontinuation because of adverse event, number of subjects / Discontinued, subjects n (%): Table 1
[1] = Example 1, patients who started at =680 mg
[2] = Example 1, started at =680 mg, 24 patients not requiring RBC transfusions at baseline
[3] = MTD cohort, at least possibly related
[4] = Table 3: treatment-emergent hematologic toxicity, MTD subjects (N = 40)
[5] = Table 4: treatment-emergent non-hematologic AE, MTD subjects (N = 40)
[6] = Table 5: treatment-emergent non-hematologic laboratory finding, MTD subjects (N = 40)

Cc1cnc(Nc2ccc(OCCN3CCCC3)cc2)nc1Nc1cccc(S(=O)(=O)NC(C)(C)C)c1 [TG101348, N-tert-butyl-3-[(5-methyl-2-{[4-(2-pyrrolidin-1-ylethoxy)phenyl]amino}pyrimidin-4-yl)amino]benzenesulfonamide dihydrochloride monohydrate]
Patients who experienced DLT (800 mg/day): 2 of 6 | Subjects who discontinued treatment during the extension study (Eight of 43 subjects): 19% | Patients who discontinued treatment (Example 1, 18 of 59 patients, median follow-up 12 weeks): 31% | Asymptomatic hyperlipasemia, patients [1]: 33% | Gr1/2 serum creatinine elevation, patients [1]: 38% | Gr3 diarrhea, number of patients [1]: 3 | Gr3 nausea, number of patients [1]: 1 | Gr3 neutropenia, patients [1]: 15% | Gr3 thrombocytopenia, patients [1]: 20% | Gr3 vomiting, number of patients [1]: 1 | Gr4 neutropenia, patients [1]: 0% | Gr4 thrombocytopenia, patients [1]: 10% | Grade 1/2 transaminitis, patients [1]: 38% | Grade 3 anemia, patients [2]: 42% | Grade 4 anemia, patients [2]: 8% | Grade 3/4 neutropenia, patients (Example 1 background): 14% | Grade 3/4 thrombocytopenia, patients (Example 1 background): 25% | Long-term toxicities (Example 2 conclusions): no long-term toxicities | Subjects who discontinued treatment during the first 6 cycles (Fifteen of 59 subjects): 25% | Reason for discontinuation of study (MF-TG101348-001, subject 101-040, starting 680, termination 520 mg/day, 24 days, possibly related): Adverse events - diarrhea (grade 3; possibly | Reason for discontinuation of study (MF-TG101348-001, subject 102-019, starting dose 520, dose at termination 520 mg/day, 42 days of treatment, probably related): Adverse event - neutropenia (grade 3; | Reason for discontinuation of study (MF-TG101348-001, subject 104-027, starting 800, termination 680 mg/day, 77 days, possibly related): Adverse event - thrombocytopenia (grade 4; | Reason for discontinuation of study (MF-TG101348-001, subject 104-029, starting 680, termination 680 mg/day, 44 days, not related, also embolic stroke (grade 3; not related)): Adverse event - endocarditis (grade 3; not | Reason for discontinuation of study (MF-TG101348-001, subject 105-059, starting 680, termination 360 mg/day, 27 days, possibly related): Adverse event - cardiac arrest (grade 5; | Reason for discontinuation of study (MF-TG101348-001, subject 106-028, starting 800, termination 520 mg/day, 44 days, possibly related): Adverse event - thrombocytopenia (grade 4; | Subjects with serious adverse events considered at least possibly related to TG101348 (MF-TG101348-001 and -002): 8 subjects | Reason for discontinuation of study (MF-TG101348-002, subject 101-047, starting 680, termination 320 mg/day, cumulative 233 days, possibly related): Adverse event - elevated creatinine (grade 2; | Reason for discontinuation of study (MF-TG101348-002, subject 104-015, starting 360, termination 520 mg/day, cumulative 257 days, possibly related): Adverse event - depression (grade 3; | Reason for discontinuation of study (MF-TG101348-002, subject 104-017, starting 520, termination 200 mg/day, cumulative 309 days): Investigator discretion - disease progression | Reason for discontinuation of study (MF-TG101348-002, subject 105-013, starting 240, termination 360 mg/day, cumulative 321 days, probably related): Adverse event - thrombocytopenia (grade 4; | Grades 3/4 asymptomatic increase in ALT, subjects (MTD cohort): 8% | Grades 3/4 asymptomatic increase in AST, subjects (MTD cohort): 3% | Grades 3/4 asymptomatic increase in serum lipase, subjects (MTD cohort): 15% | Grades 3/4 increase in alkaline phosphatase, subjects (MTD cohort): 0% | Grades 3/4 increase in creatinine, subjects (MTD cohort): 0% | Subjects who required dose-reduction during the first 6 cycles (MTD cohort (n=40), 28 subjects): 70% | Grade 3 diarrhea, subjects [3]: 13% | Grade 3 nausea, subjects [3]: 5% | Grade 3 vomiting, subjects [3]: 3% | Dose-reduction, primary reason ALT elevation (MTD cohort, first 6 cycles): 7.5% | Dose-reduction, primary reason amylase/lipase elevation (MTD cohort, first 6 cycles): 10% | Dose-reduction, primary reason cytopenia(s) (MTD cohort, first 6 cycles): 20% | Dose-reduction, primary reason gastrointestinal adverse events (MTD cohort, first 6 cycles): 12.5% | Dose-reduction, primary reason investigator discretion (MTD cohort, first 6 cycles): 7.5% | Dose-reduction, primary reason other adverse events (MTD cohort, first 6 cycles): 12.5% | Maximum tolerated dose (MTD) (Phase I study, myelofibrosis): 680 mg | Discontinuation because of adverse event, number of subjects (MTD (40 enrolled)): 5 | Discontinued, subjects n (%) (MTD (initiated at 680 or 800 mg/day; 40 enrolled)): 11 (28%) | Discontinuation because of adverse event, number of subjects (Overall (59 enrolled)): 6 | Discontinued, subjects n (%) (Overall (59 enrolled)): 15 (25%) | Anemia: New Transfusion Requirement on Study, subjects n (%) (Table 3: MTD subjects not transfusion dependent at baseline (N = 24), transfusion on at least 2 occasions for Hb <10 g/dL): 16 (67%) | Neutropenia Grade 3, subjects n (%) [4]: 6 (15%) | Neutropenia Grade 4, subjects n (%) [4]: 0 | Thrombocytopenia Grade 3, subjects n (%) [4]: 8 (20%) | Thrombocytopenia Grade 4, subjects n (%) [4]: 5 (13%) | Abdominal pain Grade 1, subjects n (%) [5]: 5 (13%) | Abdominal pain Grade 2, subjects n (%) [5]: 0 | Abdominal pain Grade 3, subjects n (%) [5]: 0 | Abdominal pain Grade 4, subjects n (%) [5]: 0 | Anorexia Grade 1, subjects n (%) [5]: 7 (18%) | Anorexia Grade 2, subjects n (%) [5]: 0 | Anorexia Grade 3, subjects n (%) [5]: 1 (3%) | Anorexia Grade 4, subjects n (%) [5]: 0 | Constipation Grade 1, subjects n (%) [5]: 6 (15%) | Constipation Grade 2, subjects n (%) [5]: 1 (3%) | Constipation Grade 3, subjects n (%) [5]: 0 | Constipation Grade 4, subjects n (%) [5]: 0 | Contusion Grade 1, subjects n (%) [5]: 5 (13%) | Contusion Grade 2, subjects n (%) [5]: 0 | Contusion Grade 3, subjects n (%) [5]: 0 | Contusion Grade 4, subjects n (%) [5]: 0 | Diarrhea Grade 1, subjects n (%) [5]: 21 (53%) | Diarrhea Grade 2, subjects n (%) [5]: 4 (10%) | Diarrhea Grade 3, subjects n (%) [5]: 5 (13%) | Diarrhea Grade 4, subjects n (%) [5]: 0 | Edema peripheral Grade 1, subjects n (%) [5]: 7 (18%) | Edema peripheral Grade 2, subjects n (%) [5]: 1 (3%) | Edema peripheral Grade 3, subjects n (%) [5]: 0 | Edema peripheral Grade 4, subjects n (%) [5]: 0 | Fatigue Grade 1, subjects n (%) [5]: 2 (5%) | Fatigue Grade 2, subjects n (%) [5]: 3 (8%) | Fatigue Grade 3, subjects n (%) [5]: 1 (3%) | Fatigue Grade 4, subjects n (%) [5]: 0 | Headache Grade 1, subjects n (%) [5]: 4 (10%) | Headache Grade 2, subjects n (%) [5]: 1 (3%) | Headache Grade 3, subjects n (%) [5]: 0 | Headache Grade 4, subjects n (%) [5]: 0 | Nausea Grade 1, subjects n (%) [5]: 20 (50%) | Nausea Grade 2, subjects n (%) [5]: 6 (15%) | Nausea Grade 3, subjects n (%) [5]: 2 (5%) | Nausea Grade 4, subjects n (%) [5]: 0 | Proteinuria Grade 1, subjects n (%) [5]: 2 (5%) | Proteinuria Grade 2, subjects n (%) [5]: 3 (8%) | Proteinuria Grade 3, subjects n (%) [5]: 0 | Proteinuria Grade 4, subjects n (%) [5]: 0 | Vomiting Grade 1, subjects n (%) [5]: 20 (50%) | Vomiting Grade 2, subjects n (%) [5]: 7 (18%) | Vomiting Grade 3, subjects n (%) [5]: 1 (3%) | Vomiting Grade 4, subjects n (%) [5]: 0 | ALT increased Grade 2, subjects n (%) [6]: 8 (20%) | ALT increased Grade 3, subjects n (%) [6]: 2 (5%) | ALT increased Grade 4, subjects n (%) [6]: 0 | AST increased Grade 2, subjects n (%) [6]: 5 (13%) | AST increased Grade 3, subjects n (%) [6]: 1 (3%) | AST increased Grade 4, subjects n (%) [6]: 0 | Creatinine increased Grade 2, subjects n (%) [6]: 11 (28%) | Creatinine increased Grade 3, subjects n (%) [6]: 0 | Creatinine increased Grade 4, subjects n (%) [6]: 0 | Hyperamylasemia Grade 2, subjects n (%) [6]: 0 | Hyperamylasemia Grade 3, subjects n (%) [6]: 1 (3%) | Hyperamylasemia Grade 4, subjects n (%) [6]: 1 (3%) | Hyperkalemia Grade 2, subjects n (%) [6]: 3 (8%) | Hyperkalemia Grade 3, subjects n (%) [6]: 2 (5%)
